Converted amounts (≈) assume the structure as drawn. Where a SMILES comes first, the peptide text is derived from it. [ ]: non-standard residue; d: D form.
Legend:
human erythrocytes = type: cell-based
Experimental: In hemolysis assays, the ability of peptides at 128 μg/ml concentration to lyse human erythrocytes to release hemoglobin was measured. The peptides described here preferably have low hemolytic activity (0.2 to 3.8% hemolysis) in mammal body. […] These peptides are useful as antimicrobial drugs as they show little or no side effects at concentrations needed to kill bacteria.
Minimum inhibition concentrations (MICs) were tested by microbroth dilution method and Chain 104, 105 and 109 inhibited the growth of Escherichia coli (ATCC 25922), Staphylococcus aureus (ATCC 25923), Klebsiella pneumoniae (ATCC 10031) and Pseudomonas aeruginosa (ATCC 27853) between 1-8 μg/ml respectively (Tables 3a, 3b and 3c). The membranolytic activities of the peptides were tested by measuring the release of hemoglobin from erythrocytes of fresh blood donated by voluntiers. Hemoglobin levels were determined spectrometrically by taking OD at 540 nm by following the protocol of Schmidtchen et al., 2011.

[1] = +4, 25, 37 and 45° C., 14 days, PBS pH 7.4, RDA with 20 μg
Experimental: (§4) Thermal stability was evaluated by diluting peptides to the concentration of 2 mg/ml in PBS buffer (pH 7.4) and incubating at different temperatures, such as +4° C., 25° C. (RT), 37° C. and 45° C., peptides stored at −20° C. were used as control. […] Peptides were also tested by diluting them at different pH values starting from pH 4 to 9. The effect of NaCl on the antimicrobial activity was tested by adding different concentrations (50, 100 and 200 mM) of NaCl to MH medium and the minimum inhibitory concentrations were tested against 4 ATCC bacterial strains.

[2] = pH 4-9, RDA
Experimental: as §4

[3] = system: gram positive and negative bacteria; test: MIC by micro broth dilution, summary over the strains tested; type: cell-based
Experimental: (§1) Minimum inhibition concentrations (MICs) were determined against Escherichia coli (ATCC 25922), Staphylococcus aureus (ATCC 25923), Klebsiella pneumoniae (ATCC 10031) and Pseudomonas aeruginosa (ATCC 27853). Also clinical strains of E. coli, K. pneumoniae, E. cloacae, P. aeruginosa, Serratia marcescens, Proteus mirabilis, S. pneumoniae, Acinetobacter baumannii, A. johnsonii and S. aureus were used for MICs assays. Additionally, clinical strains of yeast including Candida albicans, C. glabrata, C. parapsilosis and C. quillermondiae were used. The susceptibility of these microorganisms to Chain peptides were determined using micro broth dilution assay. Colonies of the respective microorganism from Muller Hinton (MH) agar plates incubated overnight were suspended in MH broth media and final concentration of microorganism was adjusted to 5.0×10^5 cfu/ml. An aliquot of 10 μl of each Chain peptide, or gentamicin, tetracycline as reference antibiotics were added in differing concentrations along with 90 μl of bacterial suspension to 96 well polypropylene plates and incubated at 37° C. for 20 to 24 hours. Concentrations of Chain peptides and reference antibiotics ranged from 0.125 to 128 μg/ml and the MICs were recorded as the lowest concentration with no visual growth of bacteria. Similarly, antifungal MICs were tested in Potato dextrose broth.

[4] = system: clinical strains of Acinetobacter johnsonii; type: cell-based
Experimental: as §1
(§2) Clinical strains of yeasts including Candida albicans, C. glabrata, C. parapsilosis and C. quillermondiae were also tested with the 12 Chain peptides. The minimum inhibitory concentration (MICs) varied between these peptides and are presented in Tables 4a, 4b, 4c and 5a, 5b, 5c. Peptides Chain 105, 201 and 308 are broad spectrum antimicrobials with MICs between 0.5-32 μg/ml against all the bacteria and yeasts tested, except Serratia marcescens and Proteus mirabilis, against which the MICs were between 64-128 μg/ml. Peptide Chain 306 has narrow spectrum activity against E.coli at 1 μg/ml and for the rest of the bacterial strains at >32 μg/ml (FIG. 10).

[5] = system: clinical strains of Candida albicans; test: MIC, clinical yeast strains, Candida albicans; type: cell-based; set-up: unit: μg/ml
Experimental: as §1, §2

[6] = system: clinical strains of C. glabrata; test: MIC, clinical yeast strains, C. glabrata; type: cell-based, Candida glabrata; set-up: unit: μg/ml
Experimental: as §1, §2

[7] = system: clinical strains of C. parapsilosis; test: MIC, clinical yeast strains, C. parapsilosis; type: cell-based, Candida parapsilosis; set-up: unit: μg/ml
Experimental: as §1, §2

[8] = system: clinical strains of C. quillermondiae; test: MIC, clinical yeast strains, C. quillermondiae; type: cell-based; details: C. quillermondiae clinical yeast strain 1
Experimental: as §1, §2

S. aureus RN4220 = type: cell-based, Staphylococcus aureus; details: antibiotic sensitive strain S. aureus RN4220
Experimental: as §1
(§3) Peptides Chain 104, Chain 105, Chain 201, Chain 308, Chain 310 were tested against antibiotic-sensitive strains of S. aureus RN4220 and methicillin resistant strains of S. aureus COL (MRSA). Chain peptides comprising of either L- or D-form amino acids were tested against these bacteria, and the D-form peptides were found have better activity compared to L-form (Table 6). Synergistic activity of chain peptides along with Ertapenem (4 μg/ml) was tested to know whether it will influence the activity against MRSA strains. […] Chain 310 has the best antibacterial activity against the MRSA strains with a MIC of 0.06 & 0.03 μg/ml along with Ertapenem (4 μg/ml) for both forms of L and D-peptides (Table 6).

S. aureus COL (MRSA) = test: Synergistic activity with Ertapenem (4 μg/ml) against MRSA, MIC; type: cell-based, Staphylococcus aureus; details: S. aureus COL, together with 4 μg/ml Ertapenem (synergistic activity)
Experimental: as §1, §3

## CC[C@H](C)[C@H](NC(=O)[C@H](CCSC)NC(=O)[C@H](C)NC(=O)[C@H](CCCNC(=N)N)NC(=O)[C@H](Cc1c[nH]c2ccccc12)NC(=O)[C@H](CCCCN)NC(=O)[C@@H](N)CCCNC(=N)N)C(=O)N[C@@H](CCCNC(=N)N)C(=O)N[C@@H](CC(C)C)C(=O)N[C@@H](Cc1c[nH]cn1)C(=O)N[C@@H](C)C(=O)N[C@@H](CCCCN)C(=O)N[C@@H](CCCNC(=N)N)C(=O)N[C@@H](CC(C)C)C(=O)N[C@@H](CCCNC(=N)N)C(=O)N[C@@H](CCCCN)C(=O)O [Chain104] (H-RKWRAMIRLHAKRLRK-OH)
Human erythrocytes
  side effects to humans as tested by hemolysis assay: little side effects
[1]
  thermostability (antibacterial activity kept after incubation): not hindered by pH or temperature even upto 45 °C for over 14 days
[2]
  pH stability (zone of inhibition): not hindered by pH

## CC(C)C[C@H](NC(=O)[C@H](Cc1c[nH]c2ccccc12)NC(=O)[C@H](Cc1ccccc1)NC(=O)[C@H](Cc1c[nH]c2ccccc12)NC(=O)[C@H](CCCCN)NC(=O)[C@H](CCCNC(=N)N)NC(=O)[C@@H](N)Cc1c[nH]c2ccccc12)C(=O)N[C@@H](Cc1ccccc1)C(=O)N[C@@H](CCCCN)C(=O)N[C@@H](CCCCN)C(=O)N[C@@H](CCCNC(=N)N)C(=O)O [Chain309] (H-WRKWFWLFKKR-OH; N-terminus and C-terminus assumed)
[3]
  activity against the four ATCC strains: very active

## CC(C)C[C@H](NC(=O)[C@H](CCCCN)NC(=O)[C@H](Cc1c[nH]c2ccccc12)NC(=O)[C@H](CCCCN)NC(=O)[C@H](C)NC(=O)[C@H](Cc1c[nH]cn1)NC(=O)[C@H](CC(C)C)NC(=O)[C@H](CCCNC(=N)N)NC(=O)[C@H](Cc1c[nH]c2ccccc12)NC(=O)[C@@H](N)Cc1c[nH]c2ccccc12)C(=O)N[C@@H](Cc1c[nH]c2ccccc12)C(=O)O [Chain109] (H-WWRLHAKWKLW-OH)
Human erythrocytes
  side effects to humans as tested by hemolysis assay: little side effects

## CC(C)C[C@H](NC(=O)[C@H](Cc1c[nH]c2ccccc12)NC(=O)[C@H](Cc1ccccc1)NC(=O)[C@H](Cc1c[nH]c2ccccc12)NC(=O)[C@H](CCCCN)NC(=O)[C@H](CC(C)C)NC(=O)[C@@H](N)CCCCN)C(=O)N[C@@H](Cc1ccccc1)C(=O)N[C@@H](CCCCN)C(=O)N[C@@H](CCCCN)C(=O)N[C@@H](CCCNC(=N)N)C(=O)O [Chain311] (H-KLKWFWLFKKR-OH; N-terminus and C-terminus assumed)
[3]
  activity against the four ATCC strains: very active

## CC[C@@H](C)[C@@H](NC(=O)[C@@H](CCSC)NC(=O)[C@@H](C)NC(=O)[C@@H](CCCNC(=N)N)NC(=O)[C@@H](Cc1c[nH]c2ccccc12)NC(=O)[C@@H](CCCCN)NC(=O)[C@H](N)CCCNC(=N)N)C(=O)N[C@H](CCCNC(=N)N)C(=O)N[C@H](CC(C)C)C(=O)N[C@H](Cc1c[nH]cn1)C(=O)N[C@H](C)C(=O)N[C@H](CCCCN)C(=O)N[C@H](Cc1c[nH]c2ccccc12)C(=O)N[C@H](CC(C)C)C(=O)N[C@H](CCCNC(=N)N)C(=O)N[C@H](CCCCN)C(=O)O [Chain105D] (H-[dR][dK][dW][dR][dA][dM][dI][dR][dL][dH][dA][dK][dW][dL][dR][dK]-OH)
[4]
  Minimum inhibitory concentration, Acinetobacter johnsonii strain 1: 4 µg/mL (≈ 1.86 µM)
[5]; Candida albicans clinical yeast strain 1
  Minimum inhibitory concentration: 32
[5]; Candida albicans clinical yeast strain 2
  Minimum inhibitory concentration: 16
[5]; Candida albicans clinical yeast strain 3
  Minimum inhibitory concentration: 32
[5]; Candida albicans clinical yeast strain 4
  Minimum inhibitory concentration: 32
[5]; Candida albicans clinical yeast strain 5
  Minimum inhibitory concentration: 32
[6]; C. glabrata clinical yeast strain 1
  Minimum inhibitory concentration: 16
[6]; C. glabrata clinical yeast strain 2
  Minimum inhibitory concentration: 16
[6]; C. glabrata clinical yeast strain 3
  Minimum inhibitory concentration: 8
[6]; C. glabrata clinical yeast strain 4
  Minimum inhibitory concentration: 32
[7]; C. parapsilosis clinical yeast strain 1
  Minimum inhibitory concentration: 8
[7]; C. parapsilosis clinical yeast strain 2
  Minimum inhibitory concentration: 8
[7]; C. parapsilosis clinical yeast strain 3
  Minimum inhibitory concentration: 8
[7]; C. parapsilosis clinical yeast strain 4
  Minimum inhibitory concentration: 4
[8]
  Minimum inhibitory concentration: 8

## CC[C@H](C)[C@H](NC(=O)[C@H](Cc1c[nH]c2ccccc12)NC(=O)[C@@H](N)CCCCN)C(=O)N[C@H](C(=O)N[C@@H](Cc1c[nH]c2ccccc12)C(=O)N[C@@H](CCCNC(=N)N)C(=O)N[C@@H](Cc1c[nH]c2ccccc12)C(=O)N[C@@H](CCCNC(=N)N)C(=O)N[C@@H](Cc1ccccc1)C(=O)N[C@@H](CCCCN)C(=O)N[C@@H](CCCNC(=N)N)C(=O)O)C(C)C [Chain201] (H-KWIVWRWRFKR-OH)
Human erythrocytes
  side effects to humans as tested by hemolysis assay: little side effects
[1]
  thermostability (antibacterial activity kept after incubation): not hindered by pH or temperature even upto 45 °C for over 14 days
[2]
  pH stability (zone of inhibition): not hindered by pH

## CC[C@H](C)[C@H](NC(=O)[C@H](CCSC)NC(=O)[C@H](C)NC(=O)[C@H](CCCNC(=N)N)NC(=O)[C@H](Cc1c[nH]c2ccccc12)NC(=O)[C@H](CCCCN)NC(=O)[C@@H](N)CCCNC(=N)N)C(=O)N[C@@H](CCCNC(=N)N)C(=O)N[C@@H](CC(C)C)C(=O)N[C@@H](Cc1c[nH]cn1)C(=O)N[C@@H](C)C(=O)N[C@@H](CCCCN)C(=O)N[C@@H](Cc1c[nH]c2ccccc12)C(=O)N[C@@H](CC(C)C)C(=O)N[C@@H](CCCNC(=N)N)C(=O)N[C@@H](CCCCN)C(=O)O [Chain105] (H-RKWRAMIRLHAKWLRK-OH)
Human erythrocytes
  side effects to humans as tested by hemolysis assay: little side effects
[1]
  thermostability (antibacterial activity kept after incubation): not hindered by pH or temperature even upto 45 °C for over 14 days
[2]
  pH stability (zone of inhibition): not hindered by pH

## CC[C@H](C)[C@H](N)C(=O)N[C@@H](Cc1c[nH]c2ccccc12)C(=O)N[C@@H](CCCCN)C(=O)N[C@@H](CCCNC(=N)N)C(=O)N[C@@H](Cc1ccccc1)C(=O)N[C@@H](CCCNC(=N)N)C(=O)N[C@@H](CC(C)C)C(=O)N[C@@H](Cc1ccccc1)C(=O)N[C@@H](CCCCN)C(=O)N[C@@H](CCCCN)C(=O)N[C@@H](Cc1c[nH]c2ccccc12)C(=O)O [Chain304] (H-IWKRFRLFKKW-OH; N-terminus and C-terminus assumed)
[3]
  activity against the four ATCC strains: very active

## CC[C@H](C)[C@H](NC(=O)[C@H](CC(C)C)NC(=O)[C@H](CCCNC(=N)N)NC(=O)[C@@H](N)CCCNC(=N)N)C(=O)N[C@@H](Cc1c[nH]c2ccccc12)C(=O)N[C@@H](CCCNC(=N)N)C(=O)N[C@@H](CCCNC(=N)N)C(=O)N[C@@H](Cc1ccccc1)C(=O)N[C@@H](CCCCN)C(=O)N[C@@H](Cc1c[nH]c2ccccc12)C(=O)N[C@@H](CC(C)C)C(=O)N[C@@H](CCCNC(=N)N)C(=O)O [Chain204] (H-RRLIWRRFKWLR-OH)
Human erythrocytes
  side effects to humans as tested by hemolysis assay: little side effects
[1]
  thermostability (antibacterial activity kept after incubation): not hindered by pH or temperature even upto 45 °C for over 14 days
[2]
  pH stability (zone of inhibition): not hindered by pH

## CC(C)C[C@H](NC(=O)[C@H](CC(C)C)NC(=O)[C@H](Cc1ccccc1)NC(=O)[C@H](Cc1c[nH]c2ccccc12)NC(=O)[C@H](CCCCN)NC(=O)[C@H](CC(C)C)NC(=O)[C@@H](N)CCCNC(=N)N)C(=O)N[C@@H](Cc1ccccc1)C(=O)N[C@@H](CCCNC(=N)N)C(=O)N[C@@H](CCCCN)C(=O)N[C@@H](CCCNC(=N)N)C(=O)O [Compound 308] (H-RLKWFLLFRKR-OH)
S. aureus RN4220
  Minimum inhibitory concentration (MIC), S. aureus RN4220: >64 µg/mL
S. aureus COL (MRSA)
  Minimum inhibitory concentration (MIC), S. aureus COL + 4 μg/ml Ertapenem: 0.5 µg/mL

From patent publication US11096985B2, “Antimicrobial peptides, their variants and uses” (priority 2015, dated 2021)
